Read-outs that look alike come from different tables or passages of the source.
Experiments:
[1] = test system: HUVEC; test: XTT cytotoxicity/proliferation assay, HUVEC; assay type: cell-based, human; details: Homo sapiens, HUVEC
Method: To assess the antiproliferative effects of the tested substances in vitro, tumor cell line CCRF-CEM derived from acute lymphoblastic leukemia and normal (healthy) HUVEC endothelial cells from umbilical vein were used. Both of these cell lines were cultured under optimal conditions for their growth in the appropriate medium in plastic bottles or plastic Petri dishes of various sizes (TPP, BD Biosciences) at 37° C., 5% CO2 and 95% humidity. HUVEC cells were purchased from BD Biosciences. CCRF-CEM cell line was obtained from ATCC/LGC Standards (American Type Cell Collection). Normal human endothelial cells from the umbilical vein are adherent cells, which were grown in plastic Petri dishes coated with collagen I. The culture medium (E-STIMTM; BD Biosciences, cat. […] Then, 5 ml of complete culture media E-STIM™ was added and the cells were centrifuged (180×g, 7 minutes), resuspended and transferred in a desired amount in a new Petri dish with fresh medium. In the experiments cells between passages 3 and 8 (after thawing) were used. Population doubling time of HUVEC cells under the used culture conditions is 38 hours. For testing of the sensitivity of cell lines to studied helquats XTT cytotoxicity/proliferation assay for determination of cell viability was used. This method is based on the ability of metabolically active cells to reduce the yellow tetrazolium salt XTT to orange formazan. The rate of conversion is measured as the increase in absorbance at 492 nm and is proportional to the enzymatic activity of mitochondrial dehydrogenases and thus the number of metabolically active (viable) cells. […] Thus it reflects the effectiveness of the test substance towards the tested cell line. Cells in exponential growth phase were plated into 96-well microtiter plate at a concentration of 3000 cells per well. Each well contained 90 μl of cell suspension. The following day, 10 μl of 10× concentrated test substances was added. […] In addition to the part of the plate containing the mentioned dilutions of test compounds there were always two control columns present, first column with medium alone (i.e. blank) and the second column with the cells in medium without test compounds (control). Into the blank and control wells the same volume of solvent (water) as the volume of the substances was added. After 72 hours of treatment with substances the measurement of viability was performed according to the manufacturer instructions. Briefly, into each well of a 96-well microtiter plate 50 μl of the prepared working solution of XTT (detection reagent) was added and then the microtiter plate was returned to the CO2 incubator. After 2 hours, the absorbance of each well at 492 nm (reference wavelength 690 nm) was measured using a multifunctional microplate reader (Tecan Genios, Austria).

[2] = test system: CCRF-CEM; test: XTT cytotoxicity/proliferation assay, CCRF-CEM; assay type: cell-based; details: Homo sapiens, CCRF-CEM
Method: To assess the antiproliferative effects of the tested substances in vitro, tumor cell line CCRF-CEM derived from acute lymphoblastic leukemia and normal (healthy) HUVEC endothelial cells from umbilical vein were used. Both of these cell lines were cultured under optimal conditions for their growth in the appropriate medium in plastic bottles or plastic Petri dishes of various sizes (TPP, BD Biosciences) at 37° C., 5% CO2 and 95% humidity. HUVEC cells were purchased from BD Biosciences. CCRF-CEM cell line was obtained from ATCC/LGC Standards (American Type Cell Collection).
Suspension cell line CCRF-CEM is a continuous in vitro culture of acute lymphoblastic leukemia. Cell line CCRF-CEM was grown in RPMI 1640 medium (Sigma-Aldrich, cat. No. R8758) supplemented with 2 mmol·l^−1 glutamine (Invitrogen, cat. No. 35050-038), 10% fetal bovine serum (FBS; Sigma-Aldrich, cat. No. F9665), 100 IU/ml penicillin, 100 μg/ml streptomycin (Sigma-Aldrich, cat. No. P0781). Passaging was carried out 2-3 times a week. Population doubling time of CCRF-CEM cells under the used culture conditions is 20 hours.
For testing of the sensitivity of cell lines to studied helquats XTT cytotoxicity/proliferation assay for determination of cell viability was used. This method is based on the ability of metabolically active cells to reduce the yellow tetrazolium salt XTT to orange formazan. The rate of conversion is measured as the increase in absorbance at 492 nm and is proportional to the enzymatic activity of mitochondrial dehydrogenases and thus the number of metabolically active (viable) cells. The output is the IC50 value corresponding to the concentration of the test substance that causes a decrease in the number of viable cells by half (i.e. 50% slowdown of cell division) relative to the control, untreated population. Thus it reflects the effectiveness of the test substance towards the tested cell line.
Cells in exponential growth phase were plated into 96-well microtiter plate at a concentration of 3000 cells per well. Each well contained 90 μl of cell suspension. The following day, 10 μl of 10× concentrated test substances was added. Effect of helquats has been studied in the concentration range 1-100 μmol·l^−1 (or 1, 2.5, 5, 7.5, 10; 15; 25; 50 and 100 μmol·l^−1). In addition to the part of the plate containing the mentioned dilutions of test compounds there were always two control columns present, first column with medium alone (i.e. blank) and the second column with the cells in medium without test compounds (control). Into the blank and control wells the same volume of solvent (water) as the volume of the substances was added. After 72 hours of treatment with substances the measurement of viability was performed according to the manufacturer instructions. Briefly, into each well of a 96-well microtiter plate 50 μl of the prepared working solution of XTT (detection reagent) was added and then the microtiter plate was returned to the CO2 incubator. After 2 hours, the absorbance of each well at 492 nm (reference wavelength 690 nm) was measured using a multifunctional microplate reader (Tecan Genios, Austria).
The results of determination of the viability of cancer and normal cells after treatment with different concentrations of test substances are summarized in Table 9. […] Each concentration of a helquat was tested in triplicates within one IC50 value determination. Each of these IC50 value determinations was repeated in at least three independent experiments. Values above 100 μmol·l^−1 were obtained by extrapolation of data measured in the concentration range 0-100 μmol·l^−1 of helquats.

[3] = test system: G-quadruplex in promoter region of the c-myc gene (NHE III1 segment); test: Dual luciferase analysis with plasmid pGL4.10-myc (luc2) in HGC-27 cells; assay type: cell-based, human; details: for inhibition at 50 µM / activity at 50 µM: Homo sapiens; for inhibition at 50 µM: HGC-27, text summary of tab. 5 (50 μmol·l^−1), read-out: inhibition of expression of firefly luciferase as compared to control; for activity at 50 µM: helquat 50 μmol · l^−1, HGC-27, firefly normalized to Renilla, 24 hours after transfection, read-out: luciferase expression relative to control (control = 100%); for Quantification of expression relative to control (%): control = 100%
Excerpt: A dual luciferase analysis was used to determine the degree of stabilization of G-quadruplex in a promoter region of the c-myc gene on cellular level. Stabilization of G-quadruplex is expressed as the ratio of expression of two luciferases (firefly and Renilla) from the co-transfected vectors pGL4.10-myc (luc2) and pRL-TK (Renilla) into a cell line HGC-27 expressing c-myc protein. Expression of the reporter gene (firefly luciferase) from pGL4.10-myc vector is controlled by the c-myc regulatory region of a length of 860 by (in the range from −306 to +554). The inserted sequence contains NHE III1 segment which forms G-quadruplex [Yang, D. et al. (2010) Future Med Chem., 2, 619], and is responsible for as much as 90% of the transcriptional activity of the c-myc gene.
Level of expression of firefly luciferase reporter gene corresponds to promoter activity of c-myc and thus to the degree of stabilization of the G-quadruplex. The signal is normalized to Renilla luciferase expression from pRL-TK vector under the control of a constitutive viral thymidine kinase (HSV-TK) promoter. The amount of Renilla luciferase expression serves as an internal control for normalization of firefly signal on transfection efficiency in the sample. Plasmids pGL4.10-myc (luc2) and pRL-TK were propagated in Escherichia coli (DH5α strain) and purified using the Qiagen Plasmid Mini and Midi kits. Cells were cultured under standard conditions and in exponential growth phase were seeded into a white 96-well microtiter plates. Transfection was carried out using a transfection reagent X-tremeGENE HP DNA in OptiMEM media for two hours. The ratio of reporter and control vector was 1:1 and the ratio of transfection reagent to the total amount of DNA was 1:1. Two hours after transfection helquats were added in a concentration of 50 μmol·l^−1. Quantity of firefly and Renilla luciferases in the samples was determined 24 hours after transfection. Dual luciferase analysis was performed using a commercially available kit (Promega, cat. No. E1960) according to manufacturer's instructions. Luminescence was measured using a luminometer EnSpire Alpha Plate Reader. The data obtained were normalized to the Renilla luciferase signal and then the values were related to control.

[4] = 72 hours of treatment, values above 100 μmol·l^−1 obtained by extrapolation, read-out: IC50 HUVEC
[5] = 72 hours, summary of table 9, read-out: concentrations non-toxic towards HUVEC cells
[6] = 72 hours of treatment, read-out: IC50 CCRF CEM
[7] = 72 hours, summary of table 9, read-out: concentrations toxic towards CCRF-CEM cells

Row | SMILES | IC50 [1, 4] | IC50 [1, 5] | IC50 [2, 6] | IC50 [2, 7] | inhibition at 50 µM [3] | activity at 50 µM [3] | Quantification of expression relative to control (%) ([3]; 10 μmol · l^−1) | Quantification of expression relative to control (%) ([3]; 50 μmol · l^−1) | Quantification of expression relative to control (%) ([3]; 150 μmol · l^−1)
1 | Cn1c(/C=C/c2cc3ccccc3[n+]3c2-c2c(ccc4c2-c2cccc[n+]2CCC4)CCC3)cc2ccccc21 [MSC-C10-10, 19-((E)-2-(1-methyl-1H-indol-2-yl)vinyl)-6,7,8,11,12,13-hexahydropyrido[1′″,2′″:1″,2″]azepino[4″,3″:5′,6′]benzo[1′,2′:3,4]azepino[1,2-a]quinoline-5,14-diium trifluoromethanesulfonate] | ≥ 100 µM | > 100 µM | 11 to 25 µM | < 25 µM | > 10% | 85% |  |  | 
2 | C(=C\c1cc2ccccc2[n+]2c1-c1c(ccc3c1-c1cccc[n+]1CCC3)CCC2)/c1ccc2[nH]ccc2c1 [MSC-C9-10, 19-((E)-2-(1H-indol-5-yl)vinyl)-6,7,8,11,12,13-hexahydropyrido[1′″,2′″:1″,2″]azepino[4″,3″:5′,6′]benzo[1′,2′:3,4]azepino[1,2-a]quinoline-5,14-diium trifluoromethanesulfonate] | ≥ 100 µM | > 100 µM | ≤ 10 µM | < 25 µM | > 40% | 56% |  |  | 
3 | Cc1c(C)c2c(c3c1CC[n+]1ccc4ccccc4c1-3)-c1cccc(/C=C/c3ccc(-c4ccc(-c5cccs5)s4)s3)[n+]1CC2.O=S(=O)([O-])C(F)(F)F.O=S(=O)([O-])C(F)(F)F [VDJA-C13-6, (E)-11-(2-([2,2′;5′,2″-terthiophen]-5-yl)vinyl)-6,7-dimethyl-4,5,8,9-tetrahydroisoquinolino[1,2-a]pyrido[1,2-k][2,9]phenanthroline-3,10-diium trifluoromethanesulfonate] | ≥ 51 µM |  | 11 to 25 µM |  |  | 27% | 59.0 ± 17.9% | 27.1 ± 0.8% | 15.3 ± 2.9%
4 | C(=C\c1c[nH]c2c1ccc1ccccc12)/c1cc2ccccc2[n+]2c1-c1c(ccc3c1-c1cccc[n+]1CCC3)CCC2 [MSC-C13-16, 19-((E)-2-(1H-benzo[g]indol-3-yl)vinyl)-6,7,8,11,12,13-hexahydropyrido[1′″,2′″:1″,2″]azepino[4″,3″:5′,6′]benzo[1′,2′:3,4]azepino[1,2-a]quinoline-5,14-diium trifluoromethanesulfonate] | ≥ 100 µM | > 100 µM | ≤ 10 µM | < 25 µM | > 10% | 85% |  |  | 

Source: patent US9932339B2, “Helquats with heteroaromatic substituents, preparation thereof, and use thereof as G-quadruplex stabilizers” (USTAV ORGANICKE CHEMIE A BIOCHEMIE AV CR, V.V.I., priority 2014, dated 2018)
